Source: paper PMC7915026, “Sulfaguanidine Hybrid with Some New Pyridine-2-One Derivatives: Design, Synthesis, and Antimicrobial Activity against Multidrug-Resistant Bacteria as Dual DNA Gyrase and DHFR Inhibitors” (Antibiotics, 2021)
In brackets after ≈: the same amount, converted by molar mass. Where two headings read alike, the source gives them in different places.

Experiments:
Type in all cases: cell-based
[1] = tested on: MDRB strains; assay: MIC and MBC, ranges over the MDRB panel; settings: four MDRB strains
Text: (§1) Norfloxacin was used as a positive control for the multidrug resistance study.
(§2) The experiment was repeating for three-times.

[2] = tested on: E. coli ATCC BAA-196; assay: Inhibition zone against multidrug-resistant bacteria; settings: MDRB E. coli ATCC BAA-196
Text: as §1
(§3) The antimicrobial activity performed at the bacteriology laboratory, Botany and Microbiology Department, Faculty of Science, Al-Azhar University, Cairo, Egypt. The inhibition zone (IZ) of the tested derivatives expressed as the diameter (mm) according to the agar plate diffusion method.

[3] = tested on: S. aureus ATCC 33591; assay: as above; settings: MDRB S. aureus ATCC 33591
Text: as §1, §3

[4] = tested on: S. aureus ATCC 43300; assay: as above; settings: MDRB S. aureus ATCC 43300
Text: as §1, §3

[5] = tested on: P. aeruginosa ATCC BAA-2111; assay: as above; settings: MDRB P. aeruginosa ATCC BAA-2111
Text: as §1, §3

[6] = tested on: E. coli ATCC BAA-196; assay: MIC and MBC against multidrug-resistant strains; settings: E. coli ATCC BAA-196
Text: as §1, §2

[7] = tested on: S. aureus ATCC 33591; assay: MIC and MBC against multidrug-resistant strains; settings: Staphylococcus aureus, ATCC33591, S. aureus ATCC 33591
Text: as §1, §2

[8] = tested on: S. aureus ATCC 43300; assay: MIC and MBC against multidrug-resistant strains; settings: Staphylococcus aureus, ATCC43300, S. aureus ATCC 43300
Text: as §1, §2

[9] = tested on: P. aeruginosa ATCC BAA-2111; assay: MIC and MBC against multidrug-resistant strains; settings: P. aeruginosa ATCC BAA-2111
Text: as §1, §2

Structure (SMILES): CCn1cc(C(=O)O)c(=O)c2cc(F)c(N3CCNCC3)cc21 [Norfloxacin, reference compound]
- MBC range [1]: 4.38 to 16.65 µM
- MIC range [1]: 2.44 to 9.80 µM
- Mean Diameter of Inhibition Zone [2]: 27 ± 0.98 mm
- Mean Diameter of Inhibition Zone [3]: 26 ± 0.5 mm
- Mean Diameter of Inhibition Zone [4]: 25 ± 0.5 mm
- Mean Diameter of Inhibition Zone [5]: 24 ± 0.47 mm
- MBC ([6]; listed as Nor.): 8.32 ± 0.47 µM (≈ 2.66 µg/mL)
- MIC ([6]; listed as Nor.): 4.91 ± 0.69 µM (≈ 1.57 µg/mL)
- MBC ([6]; Escherichia coli, ATCCBAA196, read-out: MBC): 8.32 µM (≈ 2.66 µg/mL)
- MIC ([6]; Escherichia coli, ATCCBAA196, read-out: MIC): 4.91 µM (≈ 1.57 µg/mL)
- MBC ([7]; read-out: MBC): 4.38 ± 0.49 µM (≈ 1.4 µg/mL)
- MIC ([7]; read-out: MIC): 2.44 ± 0.45 µM (≈ 0.779 µg/mL)
- MBC ([8]; read-out: MBC): 7.82 ± 0.32 µM (≈ 2.5 µg/mL)
- MIC ([8]; read-out: MIC): 3.91 ± 0.21 µM (≈ 1.25 µg/mL)
- MBC ([9]; listed as Nor.): 16.65 ± 0.19 µM (≈ 5.32 µg/mL)
- MIC ([9]; listed as Nor.): 9.80 ± 0.41 µM (≈ 3.13 µg/mL)
- MBC ([9]; Pseudomonas aeruginosa, ATCCBAA2111, read-out: MBC): 16.6 µM (≈ 5.32 µg/mL)
- MIC ([9]; Pseudomonas aeruginosa, ATCCBAA2111, read-out: MIC): 9.8 µM (≈ 3.13 µg/mL)
